The numbers were not newly measured in US6534094B2, “Manufacturing process of microcapsules for sustained release of water soluble peptides” (Eriochem S.A., priority 2000, dated 2003), which cites them from elsewhere.

The structures appear in SMILES notation.

The conditions of this data set: superactive agonist of LH-RH; fold of the biological activity of LH-RH.

For `CCNC(=O)[C@@H]1CCCN1C(=O)[C@H](CCCNC(=N)N)NC(=O)[C@H](CC(C)C)NC(=O)[C@@H](CC(C)C)NC(=O)[C@H](Cc1ccc(O)cc1)NC(=O)[C@H](CO)NC(=O)[C@H](Cc1c[nH]c2ccccc12)NC(=O)[C@H](Cc1c[nH]cn1)NC(=O)[C@@H]1CCC(=O)N1` [leuprolide acetate], the “biological activity relative to LH-RH” value is “approximately 10 times”.
